# PubChem BioAssay (NCI)
#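 48-hour exposure; five concentrations; linearly interpolated endpoints. GI50 = concentration required for 50% inhibition of growth. TGI is the concentration that stops growth completely.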
# How the values were obtained:
# Test in all cases: NCI tumour cell line growth inhibition, 48 h
# NCI-H23 lung = system: NCI-H23 lung
# NCI-H460 lung = system: NCI-H460 lung
# NCI-H522 lung = system: NCI-H522 lung
# NCI/ADR-RES ovarian = system: NCI/ADR-RES ovarian
# OVCAR-3 ovarian = system: OVCAR-3 ovarian
# OVCAR-4 ovarian = system: OVCAR-4 ovarian
# OVCAR-5 ovarian = system: OVCAR-5 ovarian
# OVCAR-8 ovarian = system: OVCAR-8 ovarian
# PC-3 prostate = system: PC-3 prostate
# RPMI-8226 leukemia = system: RPMI-8226 leukemia
# RXF 393 renal = system: RXF 393 renal
# SF-268 CNS = system: SF-268 CNS
# SF-295 CNS = system: SF-295 CNS
# SF-539 CNS = system: SF-539 CNS
# SK-MEL-2 melanoma = system: SK-MEL-2 melanoma
# SK-MEL-28 melanoma = system: SK-MEL-28 melanoma
# SK-MEL-5 melanoma = system: SK-MEL-5 melanoma
# SK-OV-3 ovarian = system: SK-OV-3 ovarian
# SN12C renal = system: SN12C renal
# SNB-19 CNS = system: SNB-19 CNS
# SNB-75 CNS = system: SNB-75 CNS
# SR leukemia = system: SR leukemia
# SW-620 colon = system: SW-620 colon
# T-47D breast = system: T-47D breast
# TK-10 renal = system: TK-10 renal
# U251 CNS = system: U251 CNS
# UACC-257 melanoma = system: UACC-257 melanoma
# UACC-62 melanoma = system: UACC-62 melanoma
# UO-31 renal = system: UO-31 renal
smiles,measurement,setting,value
COc1ccc(/C=N/NC(=O)c2[nH]c3ccc(Br)cc3c2-c2ccccc2)o1,GI50,NCI-H23 lung,300 nM
same,TGI,NCI-H23 lung,9900 nM
same,GI50,NCI-H460 lung,248 nM
same,TGI,NCI-H460 lung,1590 nM
same,GI50,NCI-H522 lung,21.6 nM
same,TGI,NCI-H522 lung,59.2 nM
same,GI50,NCI/ADR-RES ovarian,53.3 nM
same,TGI,NCI/ADR-RES ovarian,2590 nM
same,GI50,OVCAR-3 ovarian,284 nM
same,TGI,OVCAR-3 ovarian,2840 nM
same,GI50,OVCAR-4 ovarian,265 nM
same,TGI,OVCAR-4 ovarian,29300 nM
same,GI50,OVCAR-5 ovarian,161 nM
same,TGI,OVCAR-5 ovarian,17600 nM
same,GI50,OVCAR-8 ovarian,143 nM
same,TGI,OVCAR-8 ovarian,1570 nM
same,GI50,PC-3 prostate,386 nM
same,TGI,PC-3 prostate,> 34400 nM
same,GI50,RPMI-8226 leukemia,161 nM
same,TGI,RPMI-8226 leukemia,> 32500 nM
same,GI50,RXF 393 renal,1100 nM
same,TGI,RXF 393 renal,17800 nM
same,GI50,SF-268 CNS,500 nM
same,TGI,SF-268 CNS,27800 nM
same,GI50,SF-295 CNS,165 nM
same,TGI,SF-295 CNS,2880 nM
same,GI50,SF-539 CNS,72 nM
same,TGI,SF-539 CNS,237 nM
same,GI50,SK-MEL-2 melanoma,134 nM
same,TGI,SK-MEL-2 melanoma,9220 nM
same,GI50,SK-MEL-28 melanoma,418 nM
same,TGI,SK-MEL-28 melanoma,15800 nM
same,GI50,SK-MEL-5 melanoma,163 nM
same,TGI,SK-MEL-5 melanoma,391 nM
same,GI50,SK-OV-3 ovarian,455 nM
same,TGI,SK-OV-3 ovarian,40200 nM
same,GI50,SN12C renal,125 nM
same,TGI,SN12C renal,8310 nM
same,GI50,SNB-19 CNS,323 nM
same,TGI,SNB-19 CNS,19700 nM
same,GI50,SNB-75 CNS,165 nM
same,TGI,SNB-75 CNS,3530 nM
same,GI50,SR leukemia,114 nM
same,TGI,SR leukemia,19100 nM
same,GI50,SW-620 colon,196 nM
same,TGI,SW-620 colon,28300 nM
same,GI50,T-47D breast,2950 nM
same,TGI,T-47D breast,20600 nM
same,GI50,TK-10 renal,2260 nM
same,TGI,TK-10 renal,37100 nM
same,GI50,U251 CNS,309 nM
same,TGI,U251 CNS,11000 nM
same,GI50,UACC-257 melanoma,258 nM
same,TGI,UACC-257 melanoma,23200 nM
same,GI50,UACC-62 melanoma,122 nM
same,TGI,UACC-62 melanoma,13900 nM
same,GI50,UO-31 renal,470 nM
same,TGI,UO-31 renal,21500 nM
